In PubChem BioAssay AID256 (DTP/NCI, 2004):
“And” between values parts separate entries of the source, which are not always exact repeats. Equal entries are not always repeated. Toxic doses and inconclusive results are not listed. The calls were made as follows: active = survival T/C of 150% or more; inactive = T/C below 125% in these data.

Test system: CD2F1 mice, L1210 leukemia ip, survival T/C
Assay: NCI In Vivo Anticancer Drug Screen. Data for tumor model L1210 Leukemia (intraperitoneal) in CD2F1 (CDF1) mice
Conditions: endpoint: mean survival time, higher = longer survival
Procedure, shortened: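 In this screen, transplantable tumors were grown in mice given either the compound or its vehicle. Results were expressed as the treated measurement relative to the control measurement.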

[1] = dose: 100.0 mg/kg/injection, schedule: Q01DX001 (ip), vehicle: saline with Tween-80
[2] = dose: 200.0 mg/kg/injection, schedule: Q01DX001 (ip), vehicle: saline with Tween-80
[3] = dose: 400.0 mg/kg/injection, schedule: Q01DX001 (ip), vehicle: saline with Tween-80
[4] = dose: 100.0 mg/kg/injection, schedule: Q04DX003 (ip), vehicle: saline with Tween-80
[5] = dose: 400.0 mg/kg/injection, schedule: Q04DX003 (ip), vehicle: saline with Tween-80
[6] = dose: 25.0 mg/kg/injection, schedule: Q01DX009 (ip), vehicle: water
[7] = dose: 100.0 mg/kg/injection, schedule: Q01DX009 (ip), vehicle: water
[8] = dose: 50.0 mg/kg/injection, schedule: Q01DX001 (ip), vehicle: saline
[9] = dose: 100.0 mg/kg/injection, schedule: Q01DX001 (ip), vehicle: saline
[10] = dose: 200.0 mg/kg/injection, schedule: Q04DX003 (ip), vehicle: saline with Tween-80
[11] = dose: 50.0 mg/kg/injection, schedule: Q04DX002 (ip), vehicle: saline with Tween-80
[12] = dose: 100.0 mg/kg/injection, schedule: Q04DX002 (ip), vehicle: saline with Tween-80
[13] = dose: 100.0 mg/kg/injection, schedule: Q01DX009 (ip), vehicle: saline with Tween-80
[14] = dose: 200.0 mg/kg/injection, schedule: Q01DX009 (ip), vehicle: saline with Tween-80

Measured: T/C

Cc1cc(N2C(=O)CSC2=S)ccc1Br
inactive: [1] 95 % of control | [2] 97 % of control | [3] 100 % of control

COC1OC(CO)C(O)C1n1cnc2c(=O)[nH]c(N)nc21 (stereo not given)
inactive: dose: 50.0 mg/kg/injection, schedule: Q01DX001 (ip), vehicle: saline with Tween-80 97 % of control | [1] 95 % of control | [2] 97 % of control

C/C(=N/NC(=O)c1ccccc1)c1ccccc1O
inactive: dose: 100.0 mg/kg/injection, schedule: Q01DX009 (ip), vehicle: Klucel (hydroxypropylcellulose) (HPC) 92 % of control | dose: 100.0 mg/kg/injection, schedule: Q04DX003 (ip), vehicle: Klucel (hydroxypropylcellulose) (HPC) 97 % of control | dose: 200.0 mg/kg/injection, schedule: Q01DX009 (ip), vehicle: Klucel (hydroxypropylcellulose) (HPC) 94 % of control | dose: 200.0 mg/kg/injection, schedule: Q04DX003 (ip), vehicle: Klucel (hydroxypropylcellulose) (HPC) 100 % of control | dose: 400.0 mg/kg/injection, schedule: Q01DX009 (ip), vehicle: Klucel (hydroxypropylcellulose) (HPC) 94 % of control | dose: 400.0 mg/kg/injection, schedule: Q04DX003 (ip), vehicle: Klucel (hydroxypropylcellulose) (HPC) 96 % of control

CC1CCC2CCCCC2[N-]1.CC1CCC2CCCCC2[N-]1.[Cl][Pt+2][Cl] (stereo not given)
inactive: dose: 25.0 mg/kg/injection, schedule: Q04DX003 (ip), vehicle: saline with Tween-80 96 % of control | dose: 50.0 mg/kg/injection, schedule: Q04DX003 (ip), vehicle: saline with Tween-80 94 % of control | [4] 94 % of control | [5] 88 % of control

CCCCN=[N+]=[N-]
inactive: [6] 94 % of control | [7] 96 % of control | dose: 200.0 mg/kg/injection, schedule: Q01DX009 (ip), vehicle: water 91 % of control

O=C(NC(=S)c1ccccc1)Nc1ccc(Cl)cc1
inactive: [1] 90 % of control | [2] 94 % of control | [3] 94 % of control

CC1C(c2ccccc2)OP(=O)(N(CCCl)CCCl)N1C (stereo not given)
inactive: dose: 1.56 mg/kg/injection, schedule: Q01DX009 (ip), vehicle: other 110 % of control | dose: 3.13 mg/kg/injection, schedule: Q01DX009 (ip), vehicle: other 101 % of control | dose: 6.25 mg/kg/injection, schedule: Q01DX009 (ip), vehicle: other 98 % of control | dose: 12.5 mg/kg/injection, schedule: Q01DX009 (ip), vehicle: other 103 % of control and 95 % of control and 97 % of control | dose: 12.5 mg/kg/injection, schedule: Q01DX009 (ip), vehicle: water 92 % of control | dose: 25.0 mg/kg/injection, schedule: Q01DX001 (ip), vehicle: other 97 % of control and 100 % of control | dose: 25.0 mg/kg/injection, schedule: Q01DX009 (ip), vehicle: other 104 % of control and 95 % of control | [6] 86 % of control | dose: 31.3 mg/kg/injection, schedule: Q01DX001 (ip), vehicle: other 104 % of control [middle of 4 runs] | dose: 50.0 mg/kg/injection, schedule: Q01DX001 (ip), vehicle: other 102 % of control and 92 % of control | dose: 50.0 mg/kg/injection, schedule: Q01DX009 (ip), vehicle: other 95 % of control and 100 % of control | dose: 50.0 mg/kg/injection, schedule: Q01DX009 (ip), vehicle: water 100 % of control | dose: 62.5 mg/kg/injection, schedule: Q01DX001 (ip), vehicle: other 104 % of control and 103 % of control and 101 % of control | dose: 100.0 mg/kg/injection, schedule: Q01DX001 (ip), vehicle: other 103 % of control and 97 % of control | dose: 100.0 mg/kg/injection, schedule: Q01DX009 (ip), vehicle: other 97 % of control and 100 % of control | [7] 88 % of control | dose: 125.0 mg/kg/injection, schedule: Q01DX001 (ip), vehicle: other 95 % of control and 101 % of control and 104 % of control | dose: 200.0 mg/kg/injection, schedule: Q01DX001 (ip), vehicle: other 103 % of control and 108 % of control | dose: 200.0 mg/kg/injection, schedule: Q01DX009 (ip), vehicle: other 95 % of control and 101 % of control | dose: 250.0 mg/kg/injection, schedule: Q01DX001 (ip), vehicle: other 103 % of control and 98 % of control and 97 % of control | dose: 500.0 mg/kg/injection, schedule: Q01DX001 (ip), vehicle: other 107 % of control and 103 % of control and 104 % of control

Cc1nnc(C(N)=O)c(=O)[nH]1
inactive: dose: 100.0 mg/kg/injection, schedule: Q01DX001 (ip), vehicle: Klucel (hydroxypropylcellulose) (HPC) 102 % of control | dose: 200.0 mg/kg/injection, schedule: Q01DX001 (ip), vehicle: Klucel (hydroxypropylcellulose) (HPC) 98 % of control | dose: 400.0 mg/kg/injection, schedule: Q01DX001 (ip), vehicle: Klucel (hydroxypropylcellulose) (HPC) 100 % of control

CC(=O)OC1COC(n2cnc3c(=O)[nH]cnc32)C(OC(C)=O)C1OC(C)=O (stereo not given)
inactive: dose: 12.5 mg/kg/injection, schedule: Q01DX001 (ip), vehicle: saline 100 % of control and 109 % of control | dose: 25.0 mg/kg/injection, schedule: Q01DX001 (ip), vehicle: saline 100 % of control and 106 % of control | [8] 118 % of control and 103 % of control | [9] 97 % of control and 106 % of control

CCCCCc1ccc(C#N)cc1
inactive: [8] 100 % of control | [9] 97 % of control | dose: 200.0 mg/kg/injection, schedule: Q01DX001 (ip), vehicle: saline 89 % of control | dose: 400.0 mg/kg/injection, schedule: Q01DX001 (ip), vehicle: saline 93 % of control

CCOC(=O)c1c(O)csc1N
inactive: [4] 110 % of control | [10] 98 % of control | [5] 98 % of control

Cc1cc(=O)n(Cc2ccccc2)n1-c1ccccc1
inactive: dose: 25.0 mg/kg/injection, schedule: Q04DX002 (ip), vehicle: saline with Tween-80 97 % of control | [11] 100 % of control | [12] 87 % of control | [4] 98 % of control

NC(=S)N/N=C\c1cccs1
inactive: [4] 97 % of control | [10] 100 % of control | [5] 96 % of control

Cc1c(-c2ccc(Cl)cc2)nc2cc(Cl)ccc2c1C(=O)O
inactive: dose: 100.0 mg/kg/injection, schedule: Q04DX002 (ip), vehicle: saline 92 % of control | dose: 200.0 mg/kg/injection, schedule: Q04DX002 (ip), vehicle: saline 88 % of control | dose: 400.0 mg/kg/injection, schedule: Q04DX002 (ip), vehicle: saline 98 % of control

Cc1ccc(CCC=O)o1
inactive: [11] 100 % of control | [12] 100 % of control | dose: 200.0 mg/kg/injection, schedule: Q04DX002 (ip), vehicle: saline with Tween-80 100 % of control

O=[N+]([O-])c1ccc(C2N(Cc3ccc(Cl)cc3)CCN2Cc2ccc(Cl)cc2)cc1
inactive: [1] 92 % of control | [13] 95 % of control | [4] 98 % of control | [2] 96 % of control | [14] 88 % of control | [10] 98 % of control | [3] 93 % of control | dose: 400.0 mg/kg/injection, schedule: Q01DX009 (ip), vehicle: saline with Tween-80 91 % of control | [5] 90 % of control

O=C(C[n+]1cc2ccccc2cc1/C=N/O)c1ccccc1
inactive: dose: 50.0 mg/kg/injection, schedule: Q01DX009 (ip), vehicle: saline with Tween-80 98 % of control | [13] 93 % of control | [4] 95 % of control | [14] 96 % of control | [10] 95 % of control

C=C(Br)CC1CCCCC1=O (stereo not given)
inactive: [1] 94 % of control | dose: 100.0 mg/kg/injection, schedule: Q01DX009 (ip), vehicle: saline sonified 98 % of control | [2] 93 % of control | dose: 200.0 mg/kg/injection, schedule: Q01DX009 (ip), vehicle: saline sonified 94 % of control | [3] 95 % of control | dose: 400.0 mg/kg/injection, schedule: Q01DX009 (ip), vehicle: saline sonified 100 % of control
